Laboratory results: patent US20060194874A1, “Use of propionyl l-carnitine for the preparation of a medicament for the treatment of glaucoma” (priority 2002, published 2006)

What was measured:
[1] = tested on: ganglionic cells of the retina and/or astrocytes of the optic nerve; assay: In-vivo rat model of methylcellulose (MTC)-induced intraocular hypertension (experimental glaucoma): histology and TUNEL
Protocol: The effect of propionyl L-carnitine was evaluated in an in-vivo experimental rat model. This model of induction of programmed cell death (apoptosis) and/or necrosis of ganglionic cells of the retina and/or astrocytes of the optic nerve is described in the above-mentioned Acta Ophthalmologica Scandinavica, 1988, Supplement 27, 20-21 and Experimental Postgraduate Degree Thesis, Institute of Ophthalmology, “La Sapienza” University, Rome. Intraocular hypertension was induced by means of injecting methylcellulose (MTC) into the anterior chamber. The rats were divided into three groups: 1) untreated (blanks), 2) rats treated with 2% MTC (10 μL), and 3) rats treated with MTC and propionyl L-carnitine 0.15 mM final concentration injected into the anterior chamber. In semithin histological sections of untreated rat optic nerve (haematoxylin-eosin staining), normal longitudinal organisation of the astrocytes among the fibres was detected (FIG. 1A). In contrast, in rats treated with MTC, loss of cell organisation and the presence of necrotic astrocytes were detected (FIG. 1B).

[2] = tested on: 3T6 cells (murine fibroblast line); assay: Cell count with erythrosine staining, serum-deprived 3T6 cells (induced apoptosis); assay type: cell-based; details: 0.25 mM, 0.55 mM, 1.1 mM
Protocol: In subsequent experiments, apoptosis was induced in 3T6 cells 24 hours after plating by means of serum deprivation, and simultaneously propionyl L-carnitine was added to the cells. Three different concentrations of the compound were used: 0.25 mM, 0.55 mM and 1.1 mM. 48 hours after plating (24 hours after administration of the substance) a cell count with erythrosine staining was performed. Cells grown in complete medium were taken as the negative control and serum-deprived cells as the positive control.

BAX = assay: Cytoimmunological localisation of BAX (DAB staining, haematoxylin counterstain) in serum-deprived 3T6 cells; assay type: cell-based, murine
Protocol: (§1) To assess the chromatin status (and thus the apoptosis) in serum-deprived 3T6 cells, and, in cells treated with propionyl L-carnitine, a TUNEL (terminal deoxynucleotidyl transferase-mediated dUTP-biotin end labelling) reaction was performed in vitro. TUNEL labelling is a technique that consists in the addition of nucleotides (conjugated with fluorescein) at the free 3′-OH extremities present in the fragmented DNA. This reaction is catalysed by the terminal enzyme transferase. The TUNEL technique was performed on untreated serum-deprived cells and on serum-deprived cells to which the three concentrations (0.25 mM, 0.55 mM, and 1.1 mM) of propionyl L-carnitine already used for the cell counts were administered. […] The binding of the primary antibody with its epitope to BAX was detected with a secondary antibody that exploits DAB ([…]) staining. The cells subjected to cytoimmunological localisation were deprived of serum 24 hours after plating and treated with propionyl L-carnitine at the above-mentioned concentrations. Cells grown in complete medium were used as the positive control, while the negative control was prepared with cells deprived of serum 24 hours after plating.
Counterstaining with a nuclear dye such as haematoxylin was also performed in order to confirm the fact that the staining obtained with cytoimmunological localisation was effectively cytoplasmic. On the basis of the data reported in the literature, in fact, it is known that BAX is a cytoplasmically localised protein. […] On comparing the data obtained in the cell counts, with the TUNEL technique and with cytoimmunological localisation, an improvement can be found in cell survival after treatment with propionyl L-carnitine. This proves evident both in cells grown in complete medium and in cells grown in conditions in which apoptosis is induced as a result of serum deprivation.

[3] = tested on: 3T6 cells (murine fibroblast line); assay: TUNEL reaction in vitro (chromatin status) in serum-deprived 3T6 cells; assay type: cell-based
Protocol: as §1

[4] = tested on: 3T6 cells (murine fibroblast line); assay: Cell count with erythrosine stain, 3T6 cells grown in complete medium; assay type: cell-based; details: 3T6 cells in complete medium, count 24 hours after administration
Protocol: 3T6 cells (murine fibroblast line) grown in complete medium (DMEM: 10% NBS, 2% PEST and 2% glutamine) were treated with propionyl L-carnitine 24 hours after plating the cells. 48 hours after plating (24 hours after administration of the substance), a cell count was performed on the cells thus treated with an erythrosine stain that detects cells that are no longer viable (diluted 1:5 with PBS A buffer) from which the cell survival data were obtained. As controls, we used cells cultivated in complete medium on which the cell count was performed, again 24 hours after plating.

[5] = tested on: patients suffering from glaucoma; assay: Clinical trial: ocular colour Doppler ultrasonography, visual field (Octopus) and intraocular pressure; assay type: in vivo, human
Protocol: Ten patients suffering from glaucoma were treated with propionyl L-carnitine (DROMOS®) by mouth at a dose of 2 g/day for periods ranging from 15 to 50 days. Ocular arterial flow was studied by means of ocular colour Doppler ultrasonography. The posterior (nasal) ciliary artery, the posterior (temporal) ciliary artery, the central retinal and ophthalmic arteries were examined. Systolic and diastolic flow rates were expressed in cm/sec; the ratio (systolic—diastolic flow)/systolic flow expresses the peripheral resistance index. Visual fields before and after treatment with DROMOS® were compared.

[6] = ten glaucoma patients, 2 g/day by mouth, 15 to 50 days

`CCC(=O)O[C@H](CC(=O)[O-])C[N+](C)(C)C` [propionyl L-carnitine] was tested, and the “organisation of astrocytes in semithin histological sections of optic nerve” value ([1]; rats treated with 2% MTC (10 μL) and propionyl L-carnitine 0.15 mM final concentration, injected into the anterior chamber, haematoxylin-eosin, FIG. 1C) was “longitudinal organisation among the fibres”, the “necrotic cells (astrocytes) in optic nerve sections” value ([1]; rats treated with 2% MTC and propionyl L-carnitine 0.15 mM, anterior chamber, FIG. 1C) was “no necrotic cells were detected” and the “TUNEL fluorescence (apoptotic cells) in optic nerves” value ([1]; rats treated with MTC and propionyl L-carnitine 0.15 mM, anterior chamber, fluorescence microscopy, FIG. 2B) was “the presence of TUNEL fluorescence was not observed”. The “cell viability compared to negative control (complete medium)” value [2] was “still less than that obtained in the negative control”, the “cell mortality compared to serum-deprived cells (positive control)” value ([2]; count 24 hours after administration) was “a reduction in cell mortality” and the “alterations of chromatin condensation (haematoxylin counterstaining)” value (BAX; serum-deprived 3T6 cells after treatment) was “tend to be reduced”. For the same compound, the “BAX expression, dependence on concentration” value (BAX; serum-deprived 3T6 cells, 0.25 mM, 0.55 mM, 1.1 mM) was “proportional to the different concentrations”, the “expression of BAX compared to untreated serum-deprived cells” value (BAX; serum-deprived 3T6 cells, FIG. 4B) was “a lower expression of BAX” and the “cytoprotective effect, dependence on concentration” value ([3]; 0.25 mM, 0.55 mM, 1.1 mM) was “increased with the increase in concentration”. For the same compound, the “chromatin fragmentation (TUNEL fluorescence intensity)” value ([3]; serum-deprived 3T6 cells vs untreated serum-deprived cells, FIG. 3B) was “a marked reduction in chromatin fragmentation”, the “cell growth (cell count) compared to untreated control cells” value [4] was “an increase in cell growth” and the “Visual field (Octopus) after treatment, MD” value ([5]; Patient 1, OS, 30 days of treatment, before treatment 2) was 5.6. For the same compound, the “Visual field (Octopus) after treatment, MS” value ([5]; Patient 1, OS, 30 days of treatment, before treatment 11.6) was 20.2, the “Posterior nasal ciliary artery resistance index (R.I.) after treatment” value ([5]; Patient 1, SN, 30 days, before treatment 0.63) was 0.66 and the “Posterior nasal ciliary artery diastolic flow after treatment” value ([5]; Patient 1, SN, 30 days, before treatment 2.21) was 5.75 cm/sec. The “Posterior nasal ciliary artery systolic flow after treatment” value ([5]; Patient 1, SN, 30 days, before treatment 5.96) was 16.7 cm/sec, the “Posterior temporal ciliary artery resistance index (R.I.) after treatment” value ([5]; Patient 2, DX, 12 days, before treatment (SN) 0.67) was 0.55 and the “Posterior temporal ciliary artery diastolic flow after treatment” value ([5]; Patient 2, DX, 12 days, before treatment (SN) 1.92) was 3.86 cm/sec. The “Posterior temporal ciliary artery systolic flow after treatment” value ([5]; Patient 2, DX, 12 days, before treatment (SN) 5.75) was 8.65 cm/sec, the “Visual field (Octopus) after treatment, MD” value ([5]; Patient 2, OD, 12 days of treatment, before treatment 11.1) was 8.4 and the “Visual field (Octopus) after treatment, MS” value ([5]; Patient 2, OD, 12 days of treatment, before treatment 15.5) was 16.2. The visual fields ([5]; subjects with stable glaucoma, 2 g/day by mouth) was “improves visual fields”, the “intraocular pressure (IOP)” value [5, 6] was “no significant reduction in IOP” and the ocular arterial flows [5, 6] was “increases the flows”. The “peripheral resistance index in the sectors affected” value [5, 6] was “reduces the resistance index”.
